Experimental data from article PMC6792352, “Limited Chemical Structural Diversity Found to Modulate Thyroid Hormone Receptor in the Tox21 Chemical Library” (Environmental Health Perspectives, 2019).
Where a name gives a salt, the structure may show the parent alone.

assay: in vitro; settings: rat, gh3-tre-luc cells, AC50 (uM) modified / 1000

Row | Structure (SMILES) | CC50 at 24 h [µM]
1 | CCCCCCCCCCCCCCCCCC[N+](C)(C)CCC[Si](OC)(OC)OC [N,N-Dimethyl-N-(3-(trimethoxysilyl)propyl) octadecan-1-aminium chloride] | > 50
2 | CC(C)(CO)[C@@H](O)C(=O)NCCC(=O)O [Calcium pantothenate] | > 50
3 | O=C(Oc1ccccc1)c1ccc2ccccc2c1O [Phenyl 1-hydroxy-2-naphthoate] | > 90
4 | CCCCCC(N)=O [Hexanamide] | > 90
5 | CN(C)CCCN1c2ccccc2CCc2ccc(Cl)cc21 [Clomipramine hydrochloride] | 7.67
6 | N#CCCSCCC#N [3,3'-Thiodipropionitrile] | > 90
7 | O=CCCc1ccccc1 [3-Phenylpropanal] | > 90
8 | Cc1cc(O)c2c(O)c3c(O)cccc3cc2c1 [Chrysarobin] | > 50
9 | C1CCC2OC2C1 (stereo not shown) [Cyclohexene oxide] | > 100
10 | NC1(c2ccc(-c3nc4ccn5c(=O)[nH]nc5c4cc3-c3ccccc3)cc2)CCC1 [MK-2206] | 16.8
11 | CCN(CCC#N)c1ccc(N=Nc2c(Cl)cc([N+](=O)[O-])cc2Cl)cc1 [C.I. Disperse Orange 37] | 33.4
12 | N#CCCOCCOCCC#N [3,3'-(Ethylenedioxy)dipropiononitrile] | > 90
13 | COc1cc(N)c(Cl)cc1C(=O)NC1CN2CCC1CC2 (stereo not shown) [Zacopride hydrochloride] | > 50
14 | O=S(=O)(Oc1ccc(Cl)cc1)c1ccc(Cl)cc1 [Chlorfenson] | > 90
15 | Cc1ccsc1C(=CCCN1CCC[C@@H](C(=O)O)C1)c1sccc1C [Tiagabine hydrochloride] | > 50
16 | O=C1Cc2ccccc2N1c1c(Cl)cccc1Cl [1-(2,6-Dichlorophenyl)-2-indolinone] | > 90
17 | C=C(C#N)CCC#N [2-Methylenepentanedinitrile] | > 90
18 | CC(C)(COC(=O)c1ccccc1)COC(=O)c1ccccc1 [Neopentyl glycol dibenzoate] | > 90
19 | CCCOc1sc(C(=O)N2CCC(c3cc(CN)ccc3F)CC2)c(C)c1Br [AVE8923] | 3.52
20 | CCOC(=O)Nc1ccc2c(c1)N(C(=O)CCN1CCOCC1)c1ccccc1S2 [Moricizine hydrochloride] | > 20
21 | Cc1c(-c2ccc(O)cc2)n(Cc2ccc(OCCN3CCCCCC3)cc2)c2ccc(O)cc12 [Bazedoxifene acetate] | 8.31

Row | Structure (SMILES) | CC50 at 24 h [µM]
22 | c1ccc(-c2nnn[nH]2)cc1 [5-Phenyl-1H-tetrazole] | > 90
23 | CCCCC(C=O)CC (stereo not shown) [2-Ethylhexanal] | > 90
24 | CC(C)Oc1cccc(NC(=O)c2ccccc2C(F)(F)F)c1 [Flutolanil] | > 90
25 | O=C1CCC(c2ccccc2)(C2CCN(Cc3ccccc3)CC2)C(=O)N1 (stereo not shown) [Benzetimide] | > 50
26 | COC(=O)c1ccccc1OC [Methyl 2-methoxybenzoate] | > 90
27 | CCCC(Cn1cncn1)c1ccc(Cl)cc1Cl (stereo not shown) [Penconazole] | 78.4
28 | O=C(N[C@H](c1ccccc1)[C@@H]1CN2CCC1CC2)c1c(Cl)ccc(C(F)(F)F)c1Cl [SSR 103800] | 9.74
29 | CC(C)c1ncc([N+](=O)[O-])n1C [Ipronidazole] | > 50
30 | CC(C)NC[C@@H](O)COc1cccc2ccccc12 [Dexpropranolol] | 27.7
31 | CNCc1ccc(NC(=O)c2c[nH]c3c2C(=O)CCC3)cc1 [CP-409092] | > 90
32 | CC(C)(O)Cc1ccccc1 [2-Methyl-1-phenylpropan-2-ol] | > 90
33 | CC(=O)O[Si](C)(OC(C)=O)OC(C)=O [Methylsilanetriyl triacetate] | > 90
34 | Cc1cc(=O)oc2cc(O)cc(O)c12 [5,7-Dihydroxy-4-methylcoumarin] | > 90
35 | c1ccc2[nH]c(-c3cscn3)nc2c1 [Thiabendazole] | > 50
36 | CCCCOCN(C(=O)CCl)c1c(CC)cccc1CC [Butachlor] | 49.4
37 | CC1=CC(=O)[C@H]2C[C@@H]1C2(C)C [L-Verbenone] | > 90
38 | OC(C#CCN1CCCC1)(c1ccccc1)c1ccccc1 [Butinoline] | 35.3
39 | O=C(OCCCCCOC(=O)c1ccccc1)c1ccccc1 [Pentane-1,5-diyl dibenzoate] | > 90
40 | O=C1C(CC[S+]([O-])c2ccccc2)C(=O)N(c2ccccc2)N1c1ccccc1 (stereo not shown) [Sulfinpyrazone] | > 20
41 | Cc1cc(Br)ccc1NC(=O)CCl [2-Chloro-N-(2-methyl-4-bromophenyl)acetamide] | 22.1
42 | COc1ccc(C)cc1N [2-Methoxy-5-methylaniline] | > 90

Row | Structure (SMILES) | CC50 at 24 h [µM]
43 | [O-][n+]1ccccc1SSc1cccc[n+]1[O-] [Dipyrithione] | 0.205
44 | COc1cc(C=O)ccc1O [4-Hydroxy-3-methoxybenzaldehyde] | > 50
45 | O=Cc1c2ccccc2c(Cl)c2ccccc12 [10-Chloro-9-anthraldehyde] | > 50
46 | CNc1c2c(nn1C)CCCC2 [Tetridamine] | > 50
47 | CCOC(=O)OC(C)OC(=O)[C@@H]1N2C(=O)[C@@H](NC(=O)[C@H](N)c3ccccc3)[C@H]2SC1(C)C (stereo partly shown) [Bacampicillin hydrochloride] | > 20
48 | C=C[C@]1(C)C[C@@H](OC(=O)CO)[C@]2(C)[C@H](C)CC[C@]3(CCC(=O)[C@H]32)[C@@H](C)[C@@H]1O [Pleuromutilin] | > 50
49 | O=c1c(O)c(-c2ccc(O)c(O)c2)oc2cc(O)cc(O)c12 [Quercetin dihydrate] | 57
50 | Nc1nc(N)nc(N)n1 [Melamine] | > 90
51 | O=C(Oc1ccccc1)c1ccccc1 [Phenyl benzoate] | > 90
52 | C=C(C)C1CC=C(C)C(=O)C1 (racemic) [dl-Carvone] | > 90
53 | C=C1[C@H](CO)[C@@H](O)C[C@@H]1n1cnc2c(=O)[nH]c(N)nc21 [Entecavir] | > 50
54 | Cc1nc(C)c(Cl)c(O)c1Cl [Clopidol] | > 50
55 | COCc1ccc(COC)cc1 [1,4-Bis(methoxymethyl)benzene] | > 90
56 | CNC(=O)Nc1ccc(Cl)c(Cl)c1 [N-(3,4-Dichlorophenyl)-N'-methylurea] | > 90
57 | CCOc1ccc(/N=C(\C)Nc2ccc(OCC)cc2)cc1 [Phenacaine] | > 50
58 | C=C1/C(=C\C=C2/CCC[C@]3(C)[C@@H]([C@H](C)/C=C/[C@@H](O)C4CC4)CC[C@@H]23)C[C@@H](O)C[C@@H]1O [Calcipotriene] | 34.7
59 | CC(C)(O)C(=O)Nc1ccc([N+](=O)[O-])c(C(F)(F)F)c1 [Hydroxyflutamide] | > 90
60 | CCCCCCCCCC(=O)OC [Methyl decanoate] | > 90
61 | O=C1c2cccc(O)c2C(=O)c2c(O)cccc21 [Danthron] | > 90
62 | Nc1ccccc1N [1,2-Phenylenediamine dihydrochloride] | > 90
63 | c1cnccn1 [Pyrazine] | > 90

same assay, conditions: rat, gh3-tre-luc cells, AC50 (uM) modified / 1000, Tox21_110001=Tox21_110539; viability, 1 nM T3 present, 24 h

Row | Structure (SMILES) | CC50 at 24 h [µM]
64 | O=P1(NCCCl)OCCCN1CCCl (stereo not shown) [Ifosfamide] | > 20

same assay, conditions: rat, gh3-tre-luc cells, AC50 (uM) modified / 1000, Tox21_110001=Tox21_111075; viability, 1 nM T3 present, 24 h

Row | Structure (SMILES) | CC50 at 24 h [µM]
65 | CC(C)NC(C)C [Diisopropylamine] | > 50

same assay, conditions: rat, gh3-tre-luc cells, AC50 (uM) modified / 1000, Tox21_110001=Tox21_112671; viability, 1 nM T3 present, 24 h

Row | Structure (SMILES) | CC50 at 24 h [µM]
66 | C[C@]12CC[C@H](O)C[C@H]1CC[C@@H]1[C@@H]2CC[C@]2(C)[C@@H](c3ccc(=O)oc3)C[C@H]3O[C@]132 [Bufogenin] | > 50

same assay, conditions: rat, gh3-tre-luc cells, AC50 (uM) modified / 1000, Tox21_110001=Tox21_112828; viability, 1 nM T3 present, 24 h

Row | Structure (SMILES) | CC50 at 24 h [µM]
67 | CC[C@@H](O)C(C[C@@H](C)N(C)C)(c1ccccc1)c1ccccc1 [(+)-alpha-Methadol hydrochloride] | > 100

same assay, conditions: rat, gh3-tre-luc cells, AC50 (uM) modified / 1000, Tox21_110001=Tox21_113513; viability, 1 nM T3 present, 24 h

Row | Structure (SMILES) | CC50 at 24 h [µM]
68 | C[C@@H]1[C@@H]2Cc3ccc(O)cc3[C@@]1(C)CCN2CC1CC1 [(+)-Cyclazocine] | > 50

same assay, conditions: rat, gh3-tre-luc cells, AC50 (uM) modified / 1000, Tox21_110001=Tox21_200216; viability, 1 nM T3 present, 24 h

Row | Structure (SMILES) | CC50 at 24 h [µM]
69 | CC(C)NC(C)C [Diisopropylamine] | > 90

same assay, conditions: rat, gh3-tre-luc cells, AC50 (uM) modified / 1000, Tox21_110001=Tox21_200382; viability, 1 nM T3 present, 24 h

Row | Structure (SMILES) | CC50 at 24 h [µM]
70 | ClCC(Br)CBr (stereo not shown) [1,2-Dibromo-3-chloropropane] | > 90

same assay, conditions: rat, gh3-tre-luc cells, AC50 (uM) modified / 1000, Tox21_110001=Tox21_200578; viability, 1 nM T3 present, 24 h

Row | Structure (SMILES) | CC50 at 24 h [µM]
71 | CCN [Ethylammonium nitrate] | > 90

same assay, conditions: rat, gh3-tre-luc cells, AC50 (uM) modified / 1000, Tox21_110001=Tox21_200778; viability, 1 nM T3 present, 24 h

Row | Structure (SMILES) | CC50 at 24 h [µM]
72 | O=C(Cl)C(Cl)Cl [Dichloroacetyl chloride] | > 90

same assay, conditions: rat, gh3-tre-luc cells, AC50 (uM) modified / 1000, Tox21_110001=Tox21_201295; viability, 1 nM T3 present, 24 h

Row | Structure (SMILES) | CC50 at 24 h [µM]
73 | COC(=O)Nc1cccc(OC(=O)Nc2cccc(C)c2)c1 [Phenmedipham] | > 90

same assay, conditions: rat, gh3-tre-luc cells, AC50 (uM) modified / 1000, Tox21_110001=Tox21_201325; viability, 1 nM T3 present, 24 h

Row | Structure (SMILES) | CC50 at 24 h [µM]
74 | O=c1[nH]c2ccccc2c(=O)o1 [2H-3,1-Benzoxazine-2,4(1H)-dione] | > 90

same assay, conditions: rat, gh3-tre-luc cells, AC50 (uM) modified / 1000, Tox21_110001=Tox21_201815; viability, 1 nM T3 present, 24 h

Row | Structure (SMILES) | CC50 at 24 h [µM]
75 | O=P1(NCCCl)OCCCN1CCCl (stereo not shown) [Ifosfamide] | > 90

same assay, conditions: rat, gh3-tre-luc cells, AC50 (uM) modified / 1000, Tox21_110001=Tox21_202411; viability, 1 nM T3 present, 24 h

Row | Structure (SMILES) | CC50 at 24 h [µM]
76 | CC(C)CON=O [Isobutyl nitrite] | > 90

same assay, conditions: rat, gh3-tre-luc cells, AC50 (uM) modified / 1000, Tox21_110001=Tox21_302025; viability, 1 nM T3 present, 24 h

Row | Structure (SMILES) | CC50 at 24 h [µM]
77 | CCC(=O)c1ccccc1 [1-Phenylpropan-1-one] | > 90

same assay, conditions: rat, gh3-tre-luc cells, AC50 (uM) modified / 1000, Tox21_110001=Tox21_302358; viability, 1 nM T3 present, 24 h

Row | Structure (SMILES) | CC50 at 24 h [µM]
78 | CN(C)N [1,1-Dimethylhydrazine] | > 90

same assay, conditions: rat, gh3-tre-luc cells, AC50 (uM) modified / 1000, Tox21_110001=Tox21_302863; viability, 1 nM T3 present, 24 h

Row | Structure (SMILES) | CC50 at 24 h [µM]
79 | CC(C)CON=O [Isobutyl nitrite] | > 30
